The data set in a line: GHS categories as the set defines them, by LD50: 1 up to 5, 2 up to 50, 3 up to 300, 4 up to 2000, 5 above 2000 mg/kg. As to conditions: rat; in vivo; po.

Turning to `CCOC(=O)C(C)OC(=O)c1cc(Oc2ccc(C(F)(F)F)cc2Cl)ccc1[N+](=O)[O-]` (stereo unspecified), the GHS category is 5. For `CCCOC(=O)c1sc(C(=O)OCCC)c(O)c1O`, the GHS category is given as 4. Next, `CCC(=O)O[C@H]1[C@H](O[C@@H]2[C@@H](C)[C@H](O[C@H]3C[C@@](C)(OC)[C@@H](O)[C@H](C)O3)[C@@H](C)C(=O)O[C@H](CC)[C@@](C)(O)[C@H](O)[C@@H](C)C(=O)[C@H](C)C[C@@]2(C)O)O[C@H](C)C[C@@H]1N(C)C`: 5. In turn, `CCOC(=O)NCC1CCN(c2nc(N)c3cc(OC)c(OC)cc3n2)CC1` registered a GHS category of 4. Next, `NC(=O)Oc1ccccc1C(=O)Oc1ccccc1[N+](=O)[O-]`: 5; `CCCCC(CC)COC(=O)OCC(CC)CCCC` (stereo unspecified): 5. Next, `O=S(=O)([O-])CCC[n+]1ccccc1`: 5.

For the compound `CC(CCc1ccccc1)NCC(O)c1ccc(O)c(C(N)=O)c1` (stereo unspecified), the GHS category was 5. The result for `CC(C)C1=CC2=CC[C@H]3[C@](C)(CO)CCC[C@]3(C)[C@H]2CC1` reads 5; that for `CC(O)CCl` (stereo unspecified), 3. The result for `NC(=O)NC1CCC(=O)c2sccc21` (stereo unspecified) reads 5; that for `CC/C=C\CCOC(=O)Cc1ccccc1`, 5. The result for `Clc1cc(Cl)c(OCC#CI)cc1Cl` reads 5; that for `O=C(Nc1ccccc1)N(Cc1ccc(Cl)cc1)C1CCCC1`, 5. Consider `C[N+](C)(C)CC(=O)[O-]`, for which the GHS category came out at 5. With `CCC(C)n1ncn(-c2ccc(N3CCN(c4ccc(O)cc4)CC3)cc2)c1=O` (stereo unspecified), the GHS category amounted to 5.

Take `Cc1ccc(I)cc1Cc1ccc(-c2ccc(F)cc2)s1`: the GHS category worked out at 5.

Turning to `O=[N+]([O-])c1ccc2c(c1)COP(=S)(N1CCCCC1)O2` (stereo unspecified), the GHS category is recorded as 3. Next, `O=c1c2ccccc2c(=O)c2c1cc(Cl)c1[nH]c3c([nH]c12)c(Cl)cc1c(=O)c2ccccc2c(=O)c13`: 5. `O=S(=O)(O)c1ccc2c(ccc3nn(-c4ccc(C=Cc5ccc(-n6cncn6)cc5S(=O)(=O)O)c(S(=O)(=O)O)c4)nc32)c1` registered a GHS category of 5.

`COc1ccc(C2(c3ccc(OC)c(C)c3)NC(=O)NC2=O)cc1` (stereo unspecified) registered a GHS category of 5. The result for `Cc1nc2cc(Cl)ccc2o1` reads 4. In turn, `Nc1nnc(-c2cc(Cl)ccc2Cl)c(N)n1` yielded a GHS category of 4. Compound `CC1CC(OC(=O)COc2ccc(I)cc2)CC(C)(C)C1` (stereo unspecified) showed a GHS category of 5.

Compound `O=C(Nc1ccc(Cl)cc1)c1cc2ccccc2cc1O` registered a GHS category of 5.

With `CCCCCCCCCCC=O`, the GHS category is given as 5. The result for `O=C(O)CCCCCCCCCCC(=O)O` reads 5; that for `CC(=O)c1c(C)c([N+](=O)[O-])c(C(C)(C)C)c([N+](=O)[O-])c1C`, 5; that for `CCCCCC(O)CC` (stereo unspecified), 5.

In the case of `N[C@@H](CSSC[C@H](N)C(=O)O)C(=O)O`, the GHS category was 5.

Compound `CCN1C(=CC=CC=Cc2sc3ccccc3[n+]2CC)Sc2ccccc21` returned a GHS category of 3.

In turn, `OC[C@H]1O[C@@H](n2cnc3c(NC[C@H](O)COc4cccc5ccccc45)ncnc32)[C@H](O)[C@@H]1O` came in with a GHS category of 4.

`CC(=O)n1c(=O)oc2ccc(Cl)cc21` came in with a GHS category of 5.

`OCC(CBr)(CBr)CBr` yielded a GHS category of 5. Next, `CCOc1nc2cccc(C(=O)O)c2n1Cc1ccc(-c2ccccc2-c2nnn[nH]2)cc1`: 5; `CCC(=O)O[C@@H]1C=C2CCC3C(CCC4(C)C3CC[C@@H]4OC(=O)CC)C2CC1` (stereo partly specified): 5; `O=S(=O)(O)c1cc(O)c2c(N=Nc3ccc(Nc4ccccc4)c4c(S(=O)(=O)O)cccc34)cc(S(=O)(=O)O)cc2c1`: 5. The result for `Oc1cc(O)c2c(c1)O[C@H](c1ccc(O)c(O)c1)[C@@H](O)C2` reads 5; that for `Cc1cnc(C2=NC(=O)C(C)(C(C)C)N2)c(C(=O)O)c1` (stereo unspecified), 5. Next, `CCOC(=O)C(C)(C)Oc1ccc2c(c1)C=C(n1ccnc1)CC2`: 5; `c1ccc2oc(C3(Cn4ccnc4)OCCCO3)cc2c1`: 4. As to `CC(C)(C)c1cc(Cn2c(=O)n(Cc3cc(C(C)(C)C)c(O)c(C(C)(C)C)c3)c(=O)n(Cc3cc(C(C)(C)C)c(O)c(C(C)(C)C)c3)c2=O)cc(C(C)(C)C)c1O`, the GHS category was found to be 5. Compound `CCC(C(=O)NC(=O)NC(C)=O)c1ccccc1` (stereo unspecified) gave a GHS category of 5. Take `c1ccc2oc(C3(Cn4cncn4)OCCO3)cc2c1`: the GHS category is reported as 4.

On to `O=S(=O)(O)c1cc(Nc2nc(Nc3ccccc3)nc(Nc3ccccc3)n2)ccc1C=Cc1ccc(Nc2nc(Nc3ccccc3)nc(Nc3ccccc3)n2)cc1S(=O)(=O)O`, for which the GHS category is given as 5. Next, `CCCCCCCCCCCCCC=O`: 5. Next, `Cc1ccc2c(c1)c(-c1ccccc1)nn2CCCN(C)C`: 4. The result for `CC(C)OC(=O)C=Cc1ccccc1` reads 5.

`CC(O)C(C)O` (stereo unspecified) had a GHS category of 5. Consider `CC1N=C(c2ccccc2Cl)c2c(ccc(NC(=O)NCCO)c2Cl)N(C)C1=O` (stereo unspecified), for which the GHS category is given as 5. For `CCN(CC)CC1CC2(CC(CN(CC)CC)OC2=O)C(=O)O1` (stereo unspecified), the GHS category is recorded as 5. The compound `CCCC(=O)c1ccc(N)c(O)c1` showed a GHS category of 5. In turn, `COCc1cnc(C2=NC(C)(C(C)C)C(=O)N2)c(C(=O)O)c1` (stereo unspecified) had a GHS category of 5. As for `CC1=NN(c2ccccc2)C(=O)C1=CN1CCCCC1`, the GHS category is recorded as 5. The result for `COc1ccc(C2NC(=O)CCS2)cc1OC` (stereo unspecified) reads 5. `NS(=O)(=O)c1ccc(N2CCCCS2(=O)=O)cc1` gave a GHS category of 5.

`NCCCC(N)(C(=O)O)C(F)F` (stereo unspecified) registered a GHS category of 5. Next, `CCCc1nc2ccnn2c(N)c1Cc1ccc(-c2ccccc2-c2nn[nH]n2)cc1`: 4; `Cc1ccc(C2OC[C@@H]3OC(c4ccc(C)c(C)c4)O[C@H]([C@H](O)CO)[C@@H]3O2)cc1C` (stereo partly specified): 5; `FC(F)(F)OC(F)(Cl)C(F)(F)Cl` (stereo unspecified): 5. The result for `COC(C)CCO` (stereo unspecified) reads 5; that for `Cc1cccc2ncc(C(=O)Nc3ccc(Cl)cc3)c(=O)n12`, 3; that for `Clc1ccc(I)cc1Cc1ccc(OC2CCOC2)cc1` (stereo unspecified), 5. With `O=C(Nc1cccc2c(=O)c3c(ccc4c5cc(NC(=O)c6ccccc6)c6c(=O)c7ccccc7c(=O)c6c5[nH]c43)c(=O)c12)c1ccccc1`, the GHS category is on record as 5.

In the case of `CCc1cc(Cc2cc(CC)cc(C(C)(C)C)c2O)c(O)c(C(C)(C)C)c1`, the GHS category is given as 5.

The compound `CCc1ccc(CC)cc1` displayed a GHS category of 5. In turn, `CN1CC(c2ccn[nH]2)CC2c3cccc4[nH]cc(c34)CC21` (stereo unspecified) returned a GHS category of 4. Next, `CCOC(=O)NC1CCCN(c2nc(N)c3cc(OC)c(OC)cc3n2)C1` (stereo unspecified): 4; `CC1CC(c2ccccc2)C(c2ccccc2)C(=O)O1` (stereo unspecified): 4; `CCC1CCC(=O)O1` (stereo unspecified): 5. The result for `CSCC[C@H](NC(=O)CCSC(=O)c1ccccc1)C(=O)OC(C)C` reads 5. Next, `Cc1c(C)c([N+](=O)[O-])c(C(C)(C)C)c([N+](=O)[O-])c1C`: 5. Turning to `CCCCCCCCOc1ccc(-c2ccc(C#N)cc2)cc1`, the GHS category is given as 5.

Turning to `CC(C)=CCN(CC=C(C)C)CCC(C)(C#N)c1cccc2ccccc12` (stereo unspecified), the GHS category is on record as 4. The result for `CC1(C)CC2(CC(C)(C)c3ccc(O)cc32)c2cc(O)ccc21` reads 5; that for `O=C1C2C3CC(C(Br)C3Br)C2C(=O)N1CCN1C(=O)C2C3CC(C(Br)C3Br)C2C1=O` (stereo unspecified), 5. Next, `Cc1c([N+](=O)[O-])cc2c(c1[N+](=O)[O-])C(C)(C)CC2(C)C`: 5.

Turning to `COC(=O)c1ccccc1CS(=O)(=O)NC(=O)Nc1nc(OC)cc(OC)n1`, the GHS category is reported as 5. Next, `CN1C(CSCC(F)(F)F)Nc2cc(Cl)c(S(N)(=O)=O)cc2S1(=O)=O` (stereo unspecified): 2. For the compound `CCCC(Cl)CCCC(Cl)CCC(Cl)CCC(Cl)CCC(Cl)CCCC(Cl)CCC` (stereo unspecified), the GHS category came out at 5. The result for `O=C(O[C@H]1[C@H](OC(=O)c2cccnc2)[C@@H](OC(=O)c2cccnc2)[C@H](OC(=O)c2cccnc2)[C@@H](OC(=O)c2cccnc2)[C@H]1OC(=O)c1cccnc1)c1cccnc1` reads 5; that for `CC1Oc2cc(C(=O)C=Cc3ccccc3)ccc2N(C)C1=O` (stereo unspecified), 5; that for `CCCCCCCCCCCCCCCCCC(=O)OCCO`, 5.

Compound `CN1C(=O)CCc2ccc(OCCCN3CCC(Cc4ccccc4)CC3)cc21` displayed a GHS category of 4.

`NC[C@H]1O[C@H](O[C@H]2[C@H](O[C@@H]3O[C@H](CO)[C@@H](O)[C@H]3O)C(O)[C@H](N)C[C@@H]2N)[C@H](N)[C@@H](O)[C@@H]1O` (stereo partly specified) came in with a GHS category of 5.

As to `CCCCCCCCCCCCCCCCCCOC(=O)CCc1cc(C(C)(C)C)c(O)c(C(C)(C)C)c1`, the GHS category was 5.

Compound `CC(C)CCCCCCCCOCCCNCCC#N` returned a GHS category of 5. The result for `CCNC(=O)CCCSCc1nnnn1CC` reads 4; that for `CC1=C(C(=O)O)N2C(=O)[C@@H](NC(=O)C(N)C3=CCC=CC3)[C@H]2SC1` (stereo partly specified), 5; that for `CCCCC1C(=O)N(c2ccccc2)N(c2ccc(S(C)(=O)=O)cc2)C1=O` (stereo unspecified), 4.

Take `Cc1ccc(C(N)=O)c(O)c1`: the GHS category is 5.

In the case of `C=C1CC[C@@]23C[C@@H]1C(C)(C)[C@@H]2C(O)C[C@H]3C` (stereo partly specified), the GHS category came to 5. Next, `CNC(=C[N+](=O)[O-])NCCSCc1ccc(CN(C)C)o1`: 5; `CCCc1c(Cc2ccc(-c3ccccc3-c3nn[nH]n3)cc2)c(N=[N+]=[N-])nc2ncnn12`: 4; `CN1CCN(CC(=O)N2c3ccccc3C(=O)Nc3cccnc32)CC1`: 5. The compound `CCCCCCCCCCCCCCCC(=O)O` yielded a GHS category of 5.

The record behind these values is the CATMoS acute toxicity set (Mansouri et al. 2021).
